These are literature values, as cited in patent publication US20070298096A1, “Analgesic/Antipyretic Compositions for Enhanced Absorption” (priority 2004, published 2007).

Read-outs that look alike come from different tables or passages of the source.

Turning to `CC(=O)Nc1ccc(O)cc1` [APAP, acetaminophen], the tmax is 1.9 h (1 gram of APAP administered with 4 grams of calcium carbonate) and 1.4 h (APAP alone, 1 gram). Besides, the “time for the plasma level of APAP to reach its maximum, longer than APAP alone” value (co-administered with the calcium carbonate) was “½”.
